In PubChem BioAssay AID248 (DTP/NCI, 2004):
Several values for one entry are separate records, joined by “and”; a condition that tells them apart may be missing. Equal values may be shown once. Inconclusive results and toxic doses are left out. Cut-off read from the data, not from the text of the source: active = T/C of 150% or more; inactive = T/C below 125%.

System: L1210 leukemia ip in BDF1 mice, survival T/C
Assay: NCI In Vivo Anticancer Drug Screen. Data for tumor model L1210 Leukemia (intraperitoneal) in B6D2F1 (BDF1) mice
Settings: endpoint: mean survival time, higher = longer survival
How it was run: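 Antitumor effect is assessed in tumor-bearing animals. Survival in the compound arm is compared with a vehicle-dosed control arm and expressed as their quotient.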

[1] = dose: 50.0 mg/kg/injection, schedule: Q01DX001 (ip), vehicle: carboxymethylcellulose (CMC)
[2] = dose: 100.0 mg/kg/injection, schedule: Q01DX001 (ip), vehicle: carboxymethylcellulose (CMC)
[3] = dose: 200.0 mg/kg/injection, schedule: Q01DX001 (ip), vehicle: carboxymethylcellulose (CMC)
[4] = dose: 400.0 mg/kg/injection, schedule: Q01DX001 (ip), vehicle: carboxymethylcellulose (CMC)
[5] = dose: 100.0 mg/kg/injection, schedule: Q01DX009 (ip), vehicle: Klucel (hydroxypropylcellulose) (HPC)
[6] = dose: 200.0 mg/kg/injection, schedule: Q01DX009 (ip), vehicle: Klucel (hydroxypropylcellulose) (HPC)
[7] = dose: 400.0 mg/kg/injection, schedule: Q01DX009 (ip), vehicle: Klucel (hydroxypropylcellulose) (HPC)
[8] = dose: 100.0 mg/kg/injection, schedule: Q04DX003 (ip), vehicle: Klucel (hydroxypropylcellulose) (HPC)
[9] = dose: 200.0 mg/kg/injection, schedule: Q04DX003 (ip), vehicle: Klucel (hydroxypropylcellulose) (HPC)
[10] = dose: 400.0 mg/kg/injection, schedule: Q04DX003 (ip), vehicle: Klucel (hydroxypropylcellulose) (HPC)
[11] = dose: 100.0 mg/kg/injection, schedule: Q01DX001 (ip), vehicle: saline
[12] = dose: 200.0 mg/kg/injection, schedule: Q01DX001 (ip), vehicle: saline
[13] = dose: 100.0 mg/kg/injection, schedule: Q01DX009 (ip), vehicle: saline with Tween-80
[14] = dose: 50.0 mg/kg/injection, schedule: Q04DX002 (ip), vehicle: Klucel (hydroxypropylcellulose) (HPC)
[15] = dose: 100.0 mg/kg/injection, schedule: Q04DX002 (ip), vehicle: Klucel (hydroxypropylcellulose) (HPC)
[16] = dose: 200.0 mg/kg/injection, schedule: Q04DX002 (ip), vehicle: Klucel (hydroxypropylcellulose) (HPC)
[17] = dose: 100.0 mg/kg/injection, schedule: Q04DX003 (ip), vehicle: saline with Tween-80
[18] = dose: 200.0 mg/kg/injection, schedule: Q04DX003 (ip), vehicle: saline with Tween-80

Measured: T/C

CC(=O)Nc1ccc(NC(=O)Nc2ccc(Cl)cc2)cc1
inactive: dose: 25.0 mg/kg/injection, schedule: Q01DX001 (ip), vehicle: carboxymethylcellulose (CMC) 92 % of control and 90 % of control | [1] 93 % of control and 97 % of control | [2] 95 % of control and 101 % of control and 87 % of control | dose: 100.0 mg/kg/injection, schedule: Q01DX009 (ip), vehicle: carboxymethylcellulose (CMC) 93 % of control and 94 % of control | dose: 100.0 mg/kg/injection, schedule: Q04DX003 (ip), vehicle: carboxymethylcellulose (CMC) 87 % of control and 88 % of control | [3] 94 % of control | dose: 200.0 mg/kg/injection, schedule: Q01DX009 (ip), vehicle: carboxymethylcellulose (CMC) 92 % of control and 94 % of control | dose: 200.0 mg/kg/injection, schedule: Q04DX003 (ip), vehicle: carboxymethylcellulose (CMC) 92 % of control and 90 % of control | [4] 95 % of control | dose: 400.0 mg/kg/injection, schedule: Q01DX009 (ip), vehicle: carboxymethylcellulose (CMC) 104 % of control and 122 % of control | dose: 400.0 mg/kg/injection, schedule: Q04DX003 (ip), vehicle: carboxymethylcellulose (CMC) 98 % of control and 87 % of control

O=C(Nc1cccc(Cl)c1Cl)Oc1ccc2ccccc2c1
inactive: [5] 100 % of control | [6] 105 % of control | [7] 103 % of control

CC(C)(C)C(=O)CC(=O)C(C)(C)C.CC(C)(C)C(=O)CC(=O)C(C)(C)C.CC(C)(C)C(=O)CC(=O)C(C)(C)C.CC(C)(C)C(=O)CC(=O)C(C)(C)C.[Hf]
inactive: [5] 100 % of control | [8] 97 % of control | [6] 100 % of control | [9] 97 % of control | [7] 100 % of control | [10] 100 % of control

O=C1c2ccccc2-c2c(Br)c3ccccc3c(=O)n21
inactive: [1] 91 % of control | [2] 89 % of control | [3] 91 % of control | [4] 94 % of control

COc1cccc(NC(=O)Nc2cccc(Cl)c2)c1
inactive: [5] 94 % of control | [7] 95 % of control

COc1ccc([N+](=O)[O-])cc1NC(=O)NCCCl
inactive: dose: 75.0 mg/kg/injection, schedule: Q01DX009 (ip), vehicle: Klucel (hydroxypropylcellulose) (HPC) 108 % of control | [8] 93 % of control | dose: 150.0 mg/kg/injection, schedule: Q01DX009 (ip), vehicle: Klucel (hydroxypropylcellulose) (HPC) 95 % of control | [9] 96 % of control | dose: 300.0 mg/kg/injection, schedule: Q01DX009 (ip), vehicle: Klucel (hydroxypropylcellulose) (HPC) 102 % of control | [10] 98 % of control

CCCCCCCCCCCCNC(=O)Nc1cc(C)ccc1C
inactive: [5] 97 % of control | [8] 94 % of control | [6] 86 % of control | [9] 95 % of control | [7] 86 % of control | [10] 97 % of control

C=CCc1ccc(OC(=O)Nc2ccc(S(=O)(=O)CC)cc2)c(OC)c1
inactive: [2] 90 % of control | [3] 93 % of control | [4] 93 % of control

CN(C)OC(=O)Nc1cccc(C(=O)ON(C)C)c1
inactive: dose: 100.0 mg/kg/injection, schedule: Q04DX002 (ip), vehicle: DMSO 99 % of control | dose: 200.0 mg/kg/injection, schedule: Q04DX002 (ip), vehicle: DMSO 101 % of control | dose: 400.0 mg/kg/injection, schedule: Q04DX002 (ip), vehicle: DMSO 101 % of control

C#CC1=CCCC1
inactive: [11] 95 % of control | [12] 100 % of control | dose: 400.0 mg/kg/injection, schedule: Q01DX001 (ip), vehicle: saline 95 % of control

O=C(/C(Br)=C/c1ccccc1)/C(Br)=C/c1ccccc1
inactive: dose: 100.0 mg/kg/injection, schedule: Q01DX001 (ip), vehicle: saline sonified 97 % of control | [13] 109 % of control | dose: 200.0 mg/kg/injection, schedule: Q01DX001 (ip), vehicle: saline sonified 98 % of control | dose: 200.0 mg/kg/injection, schedule: Q01DX009 (ip), vehicle: saline with Tween-80 93 % of control | dose: 400.0 mg/kg/injection, schedule: Q01DX001 (ip), vehicle: saline sonified 93 % of control | dose: 400.0 mg/kg/injection, schedule: Q01DX009 (ip), vehicle: saline with Tween-80 94 % of control

CC(=O)Nc1nc(C)c(CCCOc2ccc([N+](=O)[O-])cc2)c(Cl)n1
inactive: dose: 100.0 mg/kg/injection, schedule: Q01DX001 (ip), vehicle: Klucel (hydroxypropylcellulose) (HPC) 100 % of control | dose: 200.0 mg/kg/injection, schedule: Q01DX001 (ip), vehicle: Klucel (hydroxypropylcellulose) (HPC) 97 % of control | dose: 400.0 mg/kg/injection, schedule: Q01DX001 (ip), vehicle: Klucel (hydroxypropylcellulose) (HPC) 97 % of control

O=C(O)c1oc(Br)cc1Br
inactive: dose: 12.5 mg/kg/injection, schedule: Q04DX003 (ip), vehicle: other 96 % of control | dose: 25.0 mg/kg/injection, schedule: Q04DX003 (ip), vehicle: other 102 % of control | dose: 50.0 mg/kg/injection, schedule: Q04DX003 (ip), vehicle: other 101 % of control

COC1OC2COCOC2C(OC(C)=O)C1OC(C)=O (stereo not drawn)
inactive: [14] 104 % of control | [15] 103 % of control and 100 % of control | [16] 95 % of control and 104 % of control and 92 % of control | dose: 400.0 mg/kg/injection, schedule: Q04DX002 (ip), vehicle: Klucel (hydroxypropylcellulose) (HPC) 103 % of control and 113 % of control

COC(=O)c1ccccc1N=NNc1cccc(SC)c1
inactive: [17] 95 % of control | [18] 93 % of control

NNC(=O)COc1ccccc1
inactive: [11] 106 % of control

CCN(CC)Cc1ccccc1COC(=O)c1cccc(Br)c1
inactive: [14] 111 % of control | [15] 118 % of control | [16] 103 % of control

Cc1ccc(S(=O)(=O)/C=C(\I)c2ccc([N+](=O)[O-])cc2)cc1
inactive: dose: 25.0 mg/kg/injection, schedule: Q01DX009 (ip), vehicle: saline with Tween-80 96 % of control | dose: 50.0 mg/kg/injection, schedule: Q01DX009 (ip), vehicle: saline with Tween-80 91 % of control | [11] 97 % of control | [13] 98 % of control | [12] 95 % of control

O=C(OC1CC2CC=CC21)c1ccc([N+](=O)[O-])cc1 (stereo not drawn)
inactive: [17] 96 % of control | [18] 98 % of control | dose: 400.0 mg/kg/injection, schedule: Q04DX003 (ip), vehicle: saline with Tween-80 94 % of control

CCOC(=O)CC(=O)C1CCC2C3CC=C4CC(OC(=O)OCC)CCC4(C)C3CCC12C (stereo not drawn)
inactive: dose: 25.0 mg/kg/injection, schedule: Q01DX001 (sc), vehicle: olive oil, sesame oil, peanut oil 104 % of control | dose: 50.0 mg/kg/injection, schedule: Q01DX001 (sc), vehicle: olive oil, sesame oil, peanut oil 107 % of control | dose: 100.0 mg/kg/injection, schedule: Q01DX001 (sc), vehicle: olive oil, sesame oil, peanut oil 93 % of control

O=[N+]([O-])c1ccc(OCc2ccccc2)c(Cl)c1
inactive: dose: 25.0 mg/kg/injection, schedule: Q04DX003 (ip), vehicle: saline with Tween-80 102 % of control | dose: 50.0 mg/kg/injection, schedule: Q04DX003 (ip), vehicle: saline with Tween-80 96 % of control | [17] 98 % of control and 105 % of control
